Data reported in publication PMC5218480 (PLoS ONE, 2017).

System: MV-4-11 cells
Assay: Gene expression microarray analysis (Affymetrix PrimeView) and GSEA
Type: cell-based, human
Parameters: RFU PODN (11730768_x_at) / Fold change /veh PODN (11730768_x_at) / RFU LINC00158 (11744669_a_at) / Fold change /veh LINC00158 (11744669_a_at) / RFU DUSP10 (11751237_a_at) / Fold change /veh DUSP10 (11751237_a_at) / RFU ID3 (11757404_x_at) / Fold change /veh ID3 (11757404_x_at) / RFU PLEKHG5 (11737974_s_at) / Fold change /veh PLEKHG5 (11737974_s_at) / RFU LRRC4B (11730491_at) / Fold change /veh LRRC4B (11730491_at) / RFU GIMAP4 (11747438_a_at) / Fold change /veh GIMAP4 (11747438_a_at) / RFU KRT8 (11758183_x_at) / Fold change /veh KRT8 (11758183_x_at) / RFU CNN1 (11734310_a_at) / Fold change /veh CNN1 (11734310_a_at) / RFU VPS37D (11726825_at) / Fold change /veh VPS37D (11726825_at) / RFU C10orf10 (11716522_x_at) / Fold change /veh C10orf10 (11716522_x_at) / RFU KIR2DL2 /// KIR2DL4 /// KIR2DL5A /// KIR2DL5B /// KIR2DS1 /// KIR2DS2 /// KIR2DS3 /// KIR2DS4 /// KIR3DL3 /// KIR3DL3 /// KIR3DS1 (11738374_at) / Fold change /veh KIR2DL2 /// KIR2DL4 /// KIR2DL5A /// KIR2DL5B /// KIR2DS1 /// KIR2DS2 /// KIR2DS3 /// KIR2DS4 /// KIR3DL3 /// KIR3DL3 /// KIR3DS1 (11738374_at) / RFU C1QL1 (11718748_at) / Fold change /veh C1QL1 (11718748_at) / RFU TMPRSS4 (11747572_a_at) / Fold change /veh TMPRSS4 (11747572_a_at) / RFU HAMP (11756126_x_at) / Fold change /veh HAMP (11756126_x_at) / RFU RNFT2 (11725882_a_at) / Fold change /veh RNFT2 (11725882_a_at) / RFU NR4A2 (11747474_a_at) / Fold change /veh NR4A2 (11747474_a_at) / RFU ABCC12 (11746883_a_at) / Fold change /veh ABCC12 (11746883_a_at) / RFU TMEM136 (11760407_x_at) / Fold change /veh TMEM136 (11760407_x_at) / RFU CLDN22 /// WWC2 (11732394_at) / Fold change /veh CLDN22 /// WWC2 (11732394_at) / RFU HLA-DPB1 (11760878_x_at) / Fold change /veh HLA-DPB1 (11760878_x_at) / RFU SPINT1 (11716480_a_at) / Fold change /veh SPINT1 (11716480_a_at) / RFU GAP43 (11754022_s_at) / Fold change /veh GAP43 (11754022_s_at) / RFU A4GNT (11735810_at) / Fold change /veh A4GNT (11735810_at) / RFU PRB3 (11715151_x_at) / Fold change /veh PRB3 (11715151_x_at) / RFU TUBB4B (11761932_at) / Fold change /veh TUBB4B (11761932_at) / RFU CAPN14 (11732068_a_at) / Fold change /veh CAPN14 (11732068_a_at) / RFU TMCC2 (11721928_a_at) / Fold change /veh TMCC2 (11721928_a_at) / RFU IRGQ (11745062_a_at) / Fold change /veh IRGQ (11745062_a_at) / RFU FAM174B (11720279_a_at) / Fold change /veh FAM174B (11720279_a_at) / RFU TMPRSS4 (11748680_a_at) / Fold change /veh TMPRSS4 (11748680_a_at) / RFU FAM212B (11763350_a_at) / Fold change /veh FAM212B (11763350_a_at) / RFU PLEKHG5 (11743358_a_at) / Fold change /veh PLEKHG5 (11743358_a_at) / RFU ZSCAN30 (11745921_a_at) / Fold change /veh ZSCAN30 (11745921_a_at) / RFU CMKLR1 (11741424_a_at) / Fold change /veh CMKLR1 (11741424_a_at) / RFU LOC101060620 /// MAPK8IP1 (11723275_at) / Fold change /veh LOC101060620 /// MAPK8IP1 (11723275_at) / RFU SPTSSB (11747773_x_at) / Fold change /veh SPTSSB (11747773_x_at) / RFU PRSS12 (11739890_at) / Fold change /veh PRSS12 (11739890_at) / RFU BIN1 (11741810_x_at) / Fold change /veh BIN1 (11741810_x_at) / RFU WNT11 (11732464_a_at) / Fold change /veh WNT11 (11732464_a_at) / RFU C10orf10 (11716521_a_at) / Fold change /veh C10orf10 (11716521_a_at) / RFU C5orf56 (11738089_at) / Fold change /veh C5orf56 (11738089_at) / RFU CYB561 (11721691_x_at) / Fold change /veh CYB561 (11721691_x_at) / RFU ANKRD19P (11752326_a_at) / Fold change /veh ANKRD19P (11752326_a_at) / RFU OR2T12 /// OR2T33 /// OR2T8 (11738714_s_at) / Fold change /veh OR2T12 /// OR2T33 /// OR2T8 (11738714_s_at) / RFU VCAN (11748164_a_at) / Fold change /veh VCAN (11748164_a_at) / RFU JSRP1 (11732532_at) / Fold change /veh JSRP1 (11732532_at) / RFU KRTAP10-11 (11738290_x_at) / Fold change /veh KRTAP10-11 (11738290_x_at) / RFU MYO3A (11730013_a_at) / Fold change /veh MYO3A (11730013_a_at) / RFU EBF3 (11725865_a_at) / Fold change /veh EBF3 (11725865_a_at) / RFU CAMK2N1 (11719241_x_at) / Fold change /veh CAMK2N1 (11719241_x_at) / RFU C5orf56 (11738088_a_at) / Fold change /veh C5orf56 (11738088_a_at) / RFU OLFML3 (11715873_a_at) / Fold change /veh OLFML3 (11715873_a_at) / RFU LOC100653217 /// NTM (11731650_a_at) / Fold change /veh LOC100653217 /// NTM (11731650_a_at) / RFU MAPK11 (11762145_a_at) / Fold change /veh MAPK11 (11762145_a_at) / RFU FIZ1 (11724087_x_at) / Fold change /veh FIZ1 (11724087_x_at) / RFU OASL (11726364_x_at) / Fold change /veh OASL (11726364_x_at) / RFU SOX15 (11748057_x_at) / Fold change /veh SOX15 (11748057_x_at) / RFU CD79A (11719716_a_at) / Fold change /veh CD79A (11719716_a_at) / RFU HIST1H1D (11736915_at) / Fold change /veh HIST1H1D (11736915_at) / RFU CASKIN2 (11723855_a_at) / Fold change /veh CASKIN2 (11723855_a_at) / RFU LOC730098 (11760151_x_at) / Fold change /veh LOC730098 (11760151_x_at) / RFU OR4N2 (11742367_at) / Fold change /veh OR4N2 (11742367_at) / RFU PRRT2 (11749266_a_at) / Fold change /veh PRRT2 (11749266_a_at) / RFU SNX32 (11753110_a_at) / Fold change /veh SNX32 (11753110_a_at) / RFU CDHR5 (11726645_a_at) / Fold change /veh CDHR5 (11726645_a_at) / RFU RCAN1 (11760418_a_at) / Fold change /veh RCAN1 (11760418_a_at) / RFU FAM167A (11723789_a_at) / Fold change /veh FAM167A (11723789_a_at) / RFU FAM26E (11764081_at) / Fold change /veh FAM26E (11764081_at) / RFU ISYNA1 (11749810_s_at) / Fold change /veh ISYNA1 (11749810_s_at) / RFU ACY1 (11761880_at) / Fold change /veh ACY1 (11761880_at) / RFU 11764098_at / Fold change /veh 11764098_at / RFU SAMD14 (11745864_x_at) / Fold change /veh SAMD14 (11745864_x_at) / RFU NPB (11741838_a_at) / Fold change /veh NPB (11741838_a_at) / RFU TMPRSS6 (11731388_a_at) / Fold change /veh TMPRSS6 (11731388_a_at) / RFU KRTAP10-2 (11738614_at) / Fold change /veh KRTAP10-2 (11738614_at) / RFU ARHGAP8 /// PRR5-ARHGAP8 (11727945_x_at) / Fold change /veh ARHGAP8 /// PRR5-ARHGAP8 (11727945_x_at) / RFU KRTAP5-7 /// NADSYN1 (11734609_at) / Fold change /veh KRTAP5-7 /// NADSYN1 (11734609_at) / RFU RASL12 (11751679_a_at) / Fold change /veh RASL12 (11751679_a_at) / RFU CDKN2B (11736163_a_at) / Fold change /veh CDKN2B (11736163_a_at) / RFU PRF1 (11729649_at) / Fold change /veh PRF1 (11729649_at) / RFU, ZNF638 /// ZNF638-IT1 / Fold change vs veh, ZNF638 /// ZNF638-IT1 / RFU, PANK3 / Fold change vs veh, PANK3 / RFU, SH3YL1 / Fold change vs veh, SH3YL1 / RFU, ZEB2 / Fold change vs veh, ZEB2 / RFU, NRIP1 / Fold change vs veh, NRIP1 / RFU, PTTG1IP / Fold change vs veh, PTTG1IP / RFU, CAPN2 / Fold change vs veh, CAPN2 / RFU, MED14 / Fold change vs veh, MED14 / RFU, SNORA58 / Fold change vs veh, SNORA58 / RFU, C1orf63 / Fold change vs veh, C1orf63 / RFU, LRRFIP1 / Fold change vs veh, LRRFIP1 / RFU, NDUFAF7 / Fold change vs veh, NDUFAF7 / RFU, SLC12A2 / Fold change vs veh, SLC12A2 / RFU, IBTK / Fold change vs veh, IBTK / RFU, ESF1 / Fold change vs veh, ESF1 / Fold change vs veh, TMEM50B / RFU, TAOK1 / Fold change vs veh, TAOK1 / RFU, ACBD3 / Fold change vs veh, ACBD3 / RFU, TMA16 / Fold change vs veh, TMA16 / RFU, RWDD3 / Fold change vs veh, RWDD3 / RFU, BCAT1 / Fold change vs veh, BCAT1 / RFU, EDEM3 / Fold change vs veh, EDEM3 / RFU, TMEM33 / Fold change vs veh, TMEM33 / RFU, WDR75 / Fold change vs veh, WDR75 / RFU, AHCTF1 / Fold change vs veh, AHCTF1 / RFU, TFRC / Fold change vs veh, TFRC / RFU, ZDHHC17 / Fold change vs veh, ZDHHC17 / RFU, NOM1 / Fold change vs veh, NOM1 / RFU, ARL8B / Fold change vs veh, ARL8B / RFU, ZBTB11 / Fold change vs veh, ZBTB11 / RFU, TAMM41 / Fold change vs veh, TAMM41 / RFU, KIAA1704 /// LOC100996395 / Fold change vs veh, KIAA1704 /// LOC100996395 / RFU, ING1 / Fold change vs veh, ING1 / RFU, TRMT61B / Fold change vs veh, TRMT61B / RFU, FUBP3 / Fold change vs veh, FUBP3 / RFU, TP53 / Fold change vs veh, TP53 / RFU, TNKS2 / Fold change vs veh, TNKS2 / RFU, ZFP14 / Fold change vs veh, ZFP14 / RFU, ACTR2 / Fold change vs veh, ACTR2 / RFU, PPP3R1 / Fold change vs veh, PPP3R1 / RFU, PIK3R1 / Fold change vs veh, PIK3R1 / RFU, HNRNPA1 / Fold change vs veh, HNRNPA1 / RFU, RNF170 / Fold change vs veh, RNF170 / RFU, ZNF28 / Fold change vs veh, ZNF28 / RFU, RNGTT / Fold change vs veh, RNGTT / RFU, OGT / Fold change vs veh, OGT / RFU, BRD1 / Fold change vs veh, BRD1 / RFU, MARS / Fold change vs veh, MARS / RFU, ZNF655 / Fold change vs veh, ZNF655 / RFU, FAHD1 / Fold change vs veh, FAHD1 / RFU, BDP1 / Fold change vs veh, BDP1 / RFU, LRRCC1 / Fold change vs veh, LRRCC1 / RFU, ARID1A / Fold change vs veh, ARID1A / RFU, ZNF146 / Fold change vs veh, ZNF146 / RFU, ZNF330 / Fold change vs veh, ZNF330 / RFU, GPN3 / Fold change vs veh, GPN3 / RFU, C9orf123 / Fold change vs veh, C9orf123 / RFU, N4BP2L2 / Fold change vs veh, N4BP2L2 / RFU, ARFIP1 / Fold change vs veh, ARFIP1 / RFU, FAM179B / Fold change vs veh, FAM179B / RFU, BCL10 / Fold change vs veh, BCL10 / RFU, UHRF1BP1L / Fold change vs veh, UHRF1BP1L / RFU, BET1 / Fold change vs veh, BET1 / RFU, CNOT2 / Fold change vs veh, CNOT2 / RFU, ZNF268 / Fold change vs veh, ZNF268 / Fold change vs veh, ZNF507 / RFU, DGCR2 / Fold change vs veh, DGCR2 / RFU, WDSUB1 / Fold change vs veh, WDSUB1 / Fold change vs veh, HSP90B1 /// MIR3652 / RFU, ADSS / Fold change vs veh, ADSS / RFU, GK / Fold change vs veh, GK / RFU, ZNF148 / Fold change vs veh, ZNF148 / RFU, TAF9 / Fold change vs veh, TAF9 / RFU, SLC1A5 / Fold change vs veh, SLC1A5 / RFU, SLMO2 / Fold change vs veh, SLMO2 / RFU, ABCC4 / Fold change vs veh, ABCC4 / RFU, LOC101060439 /// RAP1B / Fold change vs veh, LOC101060439 /// RAP1B / RFU, RFX7 / Fold change vs veh, RFX7 / RFU, GTPBP10 / Fold change vs veh, GTPBP10 / RFU, CNEP1R1 / Fold change vs veh, CNEP1R1 / RFU, BIVM-ERCC5 /// ERCC5 / Fold change vs veh, BIVM-ERCC5 /// ERCC5 / RFU, ILF3 / Fold change vs veh, ILF3 / RFU 11762660_at / Fold change /veh 11762660_at / RFU VCAN (11757783_s_at) / Fold change /veh VCAN (11757783_s_at) / RFU DDX43 (11728927_at) / Fold change /veh DDX43 (11728927_at) / RFU KRT8 (11758188_x_at) / Fold change /veh KRT8 (11758188_x_at) / RFU NKD1 (11759106_at) / Fold change /veh NKD1 (11759106_at) / RFU SRD5A1 (11742802_a_at) / Fold change /veh SRD5A1 (11742802_a_at) / RFU TPSAB1 /// TPSB2 (11721975_s_at) / Fold change /veh TPSAB1 /// TPSB2 (11721975_s_at) / RFU GSTM3 (11746129_a_at) / Fold change /veh GSTM3 (11746129_a_at) / RFU IL23R (11737362_x_at) / Fold change /veh IL23R (11737362_x_at) / RFU TMEM51 (11727254_a_at) / Fold change /veh TMEM51 (11727254_a_at) / RFU PIWIL2 (11732686_x_at) / Fold change /veh PIWIL2 (11732686_x_at) / RFU ORM1 (11744905_x_at) / Fold change /veh ORM1 (11744905_x_at) / RFU CCDC152 (11743942_at) / Fold change /veh CCDC152 (11743942_at) / RFU ECM1 (11717891_a_at) / Fold change /veh ECM1 (11717891_a_at) / RFU IL23R (11748794_a_at) / Fold change /veh IL23R (11748794_a_at) / RFU TNFAIP8L3 (11732012_x_at) / Fold change /veh TNFAIP8L3 (11732012_x_at) / RFU MBOAT4 (11741988_at) / Fold change /veh MBOAT4 (11741988_at) / RFU 11764193_at / Fold change /veh 11764193_at / RFU TMEM53 (11763286_at) / Fold change /veh TMEM53 (11763286_at) / RFU MAGEB2 (11727129_at) / Fold change /veh MAGEB2 (11727129_at) / RFU TMEM200A (11744735_a_at) / Fold change /veh TMEM200A (11744735_a_at) / RFU CCDC152 (11751479_a_at) / Fold change /veh CCDC152 (11751479_a_at) / RFU FAM211A (11726209_a_at) / Fold change /veh FAM211A (11726209_a_at) / RFU RGS16 (11746705_a_at) / Fold change /veh RGS16 (11746705_a_at) / RFU VCAN (11755009_s_at) / Fold change /veh VCAN (11755009_s_at) / RFU RHOB (11743442_s_at) / Fold change /veh RHOB (11743442_s_at) / RFU RGS16 (11720943_a_at) / Fold change /veh RGS16 (11720943_a_at) / RFU RGS16 (11720944_at) / Fold change /veh RGS16 (11720944_at) / RFU, VPS4B / Fold change vs veh, VPS4B / RFU, CREB1 / Fold change vs veh, CREB1 / RFU, DNAJC13 / Fold change vs veh, DNAJC13 / RFU, GNAQ / Fold change vs veh, GNAQ / RFU, CDK5R1 / Fold change vs veh, CDK5R1 / RFU, ZRANB3 / Fold change vs veh, ZRANB3 / RFU, CUL4A / Fold change vs veh, CUL4A / RFU, CCNY / Fold change vs veh, CCNY / RFU, UFL1 / Fold change vs veh, UFL1 / RFU, COG3 / Fold change vs veh, COG3 / RFU, DIAPH2 / Fold change vs veh, DIAPH2 / RFU, SKA2 / Fold change vs veh, SKA2 / RFU, AFF3 / Fold change vs veh, AFF3 / RFU, LMF1 / Fold change vs veh, LMF1 / RFU, IPO11 / Fold change vs veh, IPO11 / RFU, DFFB / Fold change vs veh, DFFB / RFU, FOXP1 / Fold change vs veh, FOXP1 / RFU, CARD8 / Fold change vs veh, CARD8 / RFU, STRN3 / Fold change vs veh, STRN3 / RFU, ADK / Fold change vs veh, ADK / RFU, RASSF2 / Fold change vs veh, RASSF2 / RFU, WIPF1 / Fold change vs veh, WIPF1 / RFU, LARP1B / Fold change vs veh, LARP1B / RFU, RASA1 / Fold change vs veh, RASA1 / RFU, RB1 / Fold change vs veh, RB1 / RFU, PPFIA1 / Fold change vs veh, PPFIA1 / RFU, MAT2A / Fold change vs veh, MAT2A / RFU, CCT5 / Fold change vs veh, CCT5 / RFU, WDR92 / Fold change vs veh, WDR92 / RFU, CUX1 / Fold change vs veh, CUX1 / RFU, TTC7A / Fold change vs veh, TTC7A / RFU, TMEM135 / Fold change vs veh, TMEM135 / RFU, DEPTOR / Fold change vs veh, DEPTOR / RFU, CPM / Fold change vs veh, CPM / RFU, DNAJB6 / Fold change vs veh, DNAJB6 / RFU, CACNA2D3 / Fold change vs veh, CACNA2D3 / RFU, DTX4 / Fold change vs veh, DTX4 / RFU, TFCP2 / Fold change vs veh, TFCP2 / RFU, GMCL1 /// GMCL1P1 / Fold change vs veh, GMCL1 /// GMCL1P1 / RFU, AEBP2 / Fold change vs veh, AEBP2 / RFU, SNHG1 /// SNORD22 /// SNORD25 /// SNORD26 /// SNORD27 /// SNORD28 /// SNORD29 /// SNORD31 / Fold change vs veh, SNHG1 /// SNORD22 /// SNORD25 /// SNORD26 /// SNORD27 /// SNORD28 /// SNORD29 /// SNORD31 / Fold change (Aza/veh), C12orf56 (ProbeSet 11735607_a_at) / Fold change (ACY-1035/veh), C12orf56 (ProbeSet 11735607_a_at) / Fold change (Aza/veh), FGFR1OP (ProbeSet 11751329_s_at) / Fold change (ACY-1035/veh), FGFR1OP (ProbeSet 11751329_s_at) / Fold change (Aza/veh), VPS36 (ProbeSet 11739960_a_at) / Fold change (ACY-1035/veh), VPS36 (ProbeSet 11739960_a_at) / RFU SYPL1 (11715823_x_at) / Fold change /veh SYPL1 (11715823_x_at) / RFU IGFBP7 (11715501_s_at) / Fold change /veh IGFBP7 (11715501_s_at) / RFU REEP3 (11722064_at) / Fold change /veh REEP3 (11722064_at) / RFU IGLL1 (11728026_x_at) / Fold change /veh IGLL1 (11728026_x_at): dose or concentration left out as unconfirmed
Settings: ProbeSet 11717702_a_at; LIST D

Question: How did the “Fold change vs veh, RB1” value turn out when `Nc1ncn([C@@H]2O[C@H](CO)[C@@H](O)[C@H]2O)c(=O)n1` [azacitidine] was run?
Answer: The value was 0.73.
